Test results published in PMC7011995, “Steroids interfere with human carbonic anhydrase activity by using alternative binding mechanisms” (Journal of Enzyme Inhibition and Medicinal Chemistry, 2018).
Read-outs that look alike come from different tables or passages of the source.

How the values were obtained:
Assay in all cases: stopped-flow CO2 hydration assay, phenol red
Assay type in all cases: biochemical
hCA IX [1] = target: T1, hCA IX (Homo sapiens, UniProt Q16790)
T1 construct: gene CA9; recombinant, obtained in-house; tumor-associated transmembrane isoform
Excerpt: stopped-flow CO2 hydration assay, phenol red on hCA IX

hCA IV [2] = target: T2, hCA IV (Homo sapiens, UniProt P22748)
T2 construct: gene CA4; recombinant, obtained in-house
T2 sequence (P22748 19-284): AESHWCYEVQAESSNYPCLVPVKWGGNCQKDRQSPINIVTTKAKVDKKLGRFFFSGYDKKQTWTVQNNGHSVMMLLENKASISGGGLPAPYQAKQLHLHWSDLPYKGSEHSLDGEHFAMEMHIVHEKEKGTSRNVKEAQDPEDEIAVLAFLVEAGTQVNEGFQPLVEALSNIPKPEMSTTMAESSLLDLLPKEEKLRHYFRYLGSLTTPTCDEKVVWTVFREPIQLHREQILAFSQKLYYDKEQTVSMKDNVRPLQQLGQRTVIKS
Excerpt: stopped-flow CO2 hydration assay, phenol red on hCA IV

hCA I = target: T3, hCA I (Homo sapiens, UniProt P00915)
T3 construct: gene CA1; recombinant, obtained in-house; cytosolic
T3 sequence (P00915 2-261): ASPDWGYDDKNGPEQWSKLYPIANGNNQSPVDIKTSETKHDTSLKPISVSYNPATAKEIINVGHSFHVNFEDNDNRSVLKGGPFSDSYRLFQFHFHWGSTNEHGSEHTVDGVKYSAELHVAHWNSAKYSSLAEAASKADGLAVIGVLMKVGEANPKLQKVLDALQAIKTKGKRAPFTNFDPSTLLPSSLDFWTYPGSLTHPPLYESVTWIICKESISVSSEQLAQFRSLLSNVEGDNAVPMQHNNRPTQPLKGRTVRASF
Excerpt: stopped-flow CO2 hydration assay, phenol red on hCA I

hCA II [3] = target: T4, hCA II (Homo sapiens, UniProt P00918)
T4 construct: gene CA2; recombinant, obtained in-house; cytosolic
Excerpt: stopped-flow CO2 hydration assay, phenol red on hCA II

hCA IX [4] = target: T1, hCA IX; conditions: read-out: hCAI
hCA II [5] = target: T4, hCA II; conditions: read-out: hCAI
hCA IV [6] = target: T2, hCA IV; conditions: read-out: hCAI

Structure (SMILES)	Ki (hCA IX [1]; read-out: hCA IX) [µM]	Ki (hCA IV [2]; read-out: hCA IV) [µM]	Ki (hCA I; read-out: hCAI) [µM]	Ki (hCA II [3]; read-out: hCA II) [µM]	Ki (hCA IX [4]) [µM]	Ki (hCA II [5]) [µM]	Ki (hCA IV [6]) [µM]	Ki (hCA IX [1]) [µM]	Ki (hCA IV [2]) [µM]	Ki (hCA I) [µM]	Ki (hCA II [3]) [µM]
C[C@]12CC[C@@H]3c4ccc(O)cc4CC[C@H]3[C@@H]1CC[C@H]2O [compound 19, α-Estradiol]	49.6	> 100	87.8	40.4	–	–	–	–	–	–	–
C[C@@H]1CC[C@@]2(OC1)O[C@H]1C[C@H]3[C@@H]4CC=C5C[C@@H](O)CC[C@]5(C)[C@H]4CC[C@]3(C)[C@H]1[C@@H]2C [compound 22, Diosgenin]	–	–	> 100	–	> 100	> 100	> 100	–	–	–	–
C[C@H](CCC(=O)NCC(=O)O)[C@H]1CC[C@H]2[C@@H]3[C@@H](O)C[C@@H]4C[C@H](O)CC[C@]4(C)[C@H]3CC[C@]12C [compound 6, Glycoursodeoxycholic acid]	89.9	–	> 100	78.4	–	–	> 100	–	–	–	–
CC(=O)[C@H]1CC[C@H]2[C@@H]3CCC4=CC(=O)CC[C@]4(C)[C@H]3CC[C@]12C [compound 17, Progesterone]	–	–	> 100	–	> 100	> 100	> 100	–	–	–	–
C[C@]12CC[C@H]3[C@@H](CCC4=CC(=O)CC[C@@]43C)[C@@H]1CC[C@@H]2O [compound 13, Testosterone]	–	–	–	–	–	–	–	> 100	> 100	> 100	> 100
C[C@H](CCC(=O)O)[C@H]1CC[C@H]2[C@@H]3C[C@H](O)[C@@H]4C[C@H](O)CC[C@]4(C)[C@H]3CC[C@]12C [compound 8, Hyodeoxycholic acid]	67.7	–	> 100	58.4	–	–	> 100	–	–	–	–
C[C@]12CC[C@@H](O)C[C@@H]1CC[C@@H]1[C@@H]2CC[C@]2(C)C(=O)CC[C@@H]12 [compound 14, Androsterone]	–	–	–	–	–	–	–	> 100	> 100	> 100	> 100
C[C@H](CCC(=O)O)[C@H]1CC[C@H]2[C@@H]3[C@H](O)C[C@@H]4C[C@H](O)CC[C@]4(C)[C@H]3CC[C@]12C [compound 1, Chenodeoxycholic acid]	63	–	> 100	53.9	–	–	> 100	–	–	–	–
C[C@H](CCC(=O)O)[C@H]1CC[C@H]2[C@@H]3[C@H](O)[C@H](O)[C@@H]4C[C@H](O)CC[C@]4(C)[C@H]3CC[C@]12C [compound 9, Hyocholic acid]	71.9	> 100	83.3	38.9	–	–	–	–	–	–	–
CC(=O)[C@H]1CC[C@H]2[C@@H]3CCC4=CC(=O)CC[C@]4(C)[C@H]3[C@H](O)C[C@]12C [compound 18, 11α-Hydroxyprogesterone]	–	–	> 100	–	> 100	> 100	> 100	–	–	–	–
C[C@H](CCC(=O)O)[C@H]1CC[C@H]2[C@@H]3[C@@H](O)C[C@@H]4C[C@H](O)CC[C@]4(C)[C@H]3CC[C@]12C [compound 5, Ursodeoxycholic acid]	73.1	> 100	95.9	71.4	–	–	–	–	–	–	–
C[C@]12CCC(=O)C=C1CC[C@@H]1[C@@H]2[C@@H](O)C[C@@]2(C)[C@H]1CC[C@]2(O)C(=O)CO [compound 21, Hydrocortisone]	–	–	> 100	–	> 100	> 100	> 100	–	–	–	–
C[C@H](CCC(=O)O)[C@H]1CC[C@H]2[C@@H]3[C@H](O)C[C@@H]4C[C@H](O)CC[C@]4(C)[C@H]3C[C@H](O)[C@]12C [compound 2, Cholic acid]	47.1	–	> 100	48.9	–	–	> 100	–	–	–	–
C[C@]12CC[C@H](O)CC1=CC[C@@H]1[C@@H]2CC[C@]2(C)C(=O)CC[C@@H]12 [compound 15, Trans-dehydroandrosterone]	–	–	> 100	–	> 100	> 100	> 100	–	–	–	–
CC(C)CCC[C@@H](C)[C@H]1CC[C@H]2[C@@H]3CC=C4C[C@@H](O)CC[C@]4(C)[C@H]3CC[C@]12C [compound 11, Cholesterol]	–	–	> 100	–	> 100	> 100	> 100	–	–	–	–
C[C@H](CCC(=O)O)[C@H]1CC[C@H]2[C@@H]3CC[C@@H]4C[C@H](O)CC[C@]4(C)[C@H]3CC[C@]12C [compound 3, Lithocholic acid]	70.2	–	> 100	64.5	–	–	> 100	–	–	–	–
C[C@H](CCC(=O)NCCS(=O)(=O)O)[C@H]1CC[C@H]2[C@@H]3[C@@H](O)C[C@@H]4C[C@H](O)CC[C@]4(C)[C@H]3CC[C@]12C [compound 7, Tauroursodeoxycholic acid]	42.9	–	> 100	82.9	–	–	> 100	–	–	–	–
C[C@H](CCC(=O)O)[C@H]1CC[C@H]2[C@@H]3C(=O)C[C@@H]4CC(=O)CC[C@]4(C)[C@H]3CC(=O)[C@]12C [compound 10, Dehydrocholic acid]	53.9	–	> 100	57.8	–	–	> 100	–	–	–	–
C[C@]12CC[C@@H]3c4ccc(O)cc4CC[C@H]3[C@@H]1CCC2=O [compound 20, Estron]	71.4	–	> 100	50.8	–	–	> 100	–	–	–	–
C[C@H](CCC(=O)O)[C@H]1CC[C@H]2[C@@H]3CC[C@@H]4C[C@H](O)CC[C@]4(C)[C@H]3C[C@H](O)[C@]12C [compound 4, Deoxycholic acid]	55	–	> 100	51	–	–	> 100	–	–	–	–
CC(C)CCC[C@@H](C)[C@H]1CC[C@H]2[C@@H]3CC[C@@H]4C[C@@H](O)CC[C@]4(C)[C@H]3CC[C@]12C [compound 12, Coprostan-3-ol]	–	–	> 100	–	> 100	> 100	> 100	–	–	–	–
C[C@]12CCC(=O)C[C@@H]1CC[C@@H]1[C@@H]2CC[C@]2(C)[C@@H](O)CC[C@@H]12 [compound 16, Androstanolone]	–	–	–	–	–	–	–	> 100	> 100	> 100	> 100
